Legend:
Flt-3 kinase = target: T1, Flt-3 kinase (Homo sapiens, UniProt P36888); assay: Flt-3 kinase biochemical activity assay (AlphaScreen); conditions: 100 μM ATP; read-out: Biochemical Inhibition IC50 Flt3
T1 sequence (P36888 27-993): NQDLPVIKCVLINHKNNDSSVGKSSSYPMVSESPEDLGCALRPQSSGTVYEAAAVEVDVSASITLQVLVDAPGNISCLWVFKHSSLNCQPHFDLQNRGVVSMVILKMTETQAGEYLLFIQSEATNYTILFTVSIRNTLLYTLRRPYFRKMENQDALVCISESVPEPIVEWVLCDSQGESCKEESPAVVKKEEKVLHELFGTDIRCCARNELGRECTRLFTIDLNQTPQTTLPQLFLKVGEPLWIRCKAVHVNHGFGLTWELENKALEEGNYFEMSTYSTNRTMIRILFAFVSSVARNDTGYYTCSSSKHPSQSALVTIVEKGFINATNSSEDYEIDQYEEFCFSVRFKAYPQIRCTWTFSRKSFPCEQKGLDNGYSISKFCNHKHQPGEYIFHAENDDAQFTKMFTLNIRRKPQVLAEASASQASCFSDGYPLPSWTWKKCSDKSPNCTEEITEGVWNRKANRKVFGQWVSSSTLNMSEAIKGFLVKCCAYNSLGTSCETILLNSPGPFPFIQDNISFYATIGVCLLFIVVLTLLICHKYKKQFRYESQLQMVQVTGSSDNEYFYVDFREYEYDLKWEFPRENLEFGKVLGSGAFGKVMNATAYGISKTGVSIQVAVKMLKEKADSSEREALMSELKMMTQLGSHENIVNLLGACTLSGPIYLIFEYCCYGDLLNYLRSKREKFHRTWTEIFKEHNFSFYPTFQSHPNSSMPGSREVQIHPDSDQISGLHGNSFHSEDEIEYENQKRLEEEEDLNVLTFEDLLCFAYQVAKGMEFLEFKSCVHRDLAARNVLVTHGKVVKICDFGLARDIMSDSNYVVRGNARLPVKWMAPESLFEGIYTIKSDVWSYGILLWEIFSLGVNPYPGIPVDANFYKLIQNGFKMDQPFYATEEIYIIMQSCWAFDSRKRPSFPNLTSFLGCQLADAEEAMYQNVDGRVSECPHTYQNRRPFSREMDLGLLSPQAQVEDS
Experimental: In one assay the biochemical activity IC50 values are determined with respect to inhibition of Flt-3 kinase activity, where inhibition of phosphorylation of a peptide substrate is measured as a function of compound concentration. Compounds to be tested, dissolved in DMSO (1 μL), are added to a white 384-well plate (Costar #3705). Working stocks of Flt-3 kinase (Invitrogen), biotin-(E4Y)10 substrate (Upstate Biotech, Cat#12-440), and ATP (Sigma, Cat#A-3377) are prepared in 25 mM Hepes pH 7.5, 5 mM MgCl2, 5 mM MnCl2, 1 mM DTT, and 0.01% Tween-20. All components are added to the 384-well plate for a final concentration of 1 ng/well Flt-3, 30 nM biotin-(E4Y)10 and 100 μM ATP in a volume of 20 μL. Each sample is at 5% DMSO. The plate is then incubated for 1 hour at room temperature. Just before use, working stocks of donor and acceptor beads from the AlphaScreen PY20 Detection Kit (PerkinElmer, Cat#676601M) are prepared in 25 mM Hepes pH 7.5, pH 7.4, 100 mM EDTA. 0.3% BSA. To stop the reaction, the plate is uncovered in the dark and 5 μL of Donor Beads solution (Streptavidin beads) is added to each well. The plate is incubated at room temperature for 20 minutes. Five microliters of Acceptor Beads solution (PY20 coated beads) are then added to each well. The final concentration of each bead is 10 μg/mL. The plates are incubated at room temperature for 60 minutes. Fluorescence signal is recorded on the Envision reader. Phosphorylated substrate results in binding of the PY20 antibody and association of the donor and acceptor beads such that signal correlates with kinase activity. The signal vs. compound concentration is used to determine the IC50.

CYP2D6 = CYP2D6 (Homo sapiens, UniProt P10635); assay: CYP2D6 inhibition (fluorescent substrate AMMC); type: in vitro ADME; conditions: read-out: Cyp IC50 2D6
In short: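 Compounds, serially diluted 1:1 over 10 points in NADPH-regenerating cofactor mix with 5% acetonitrile, were preincubated 10 min at 37 °C, then run with enzyme and substrate at 37 °C (CYP1A2 15 min; CYP2C9 45 min; CYP2C19, CYP2D6 30 min). Product fluorescence gave IC50s.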

CYP2D6, sequence (P10635 whole entry): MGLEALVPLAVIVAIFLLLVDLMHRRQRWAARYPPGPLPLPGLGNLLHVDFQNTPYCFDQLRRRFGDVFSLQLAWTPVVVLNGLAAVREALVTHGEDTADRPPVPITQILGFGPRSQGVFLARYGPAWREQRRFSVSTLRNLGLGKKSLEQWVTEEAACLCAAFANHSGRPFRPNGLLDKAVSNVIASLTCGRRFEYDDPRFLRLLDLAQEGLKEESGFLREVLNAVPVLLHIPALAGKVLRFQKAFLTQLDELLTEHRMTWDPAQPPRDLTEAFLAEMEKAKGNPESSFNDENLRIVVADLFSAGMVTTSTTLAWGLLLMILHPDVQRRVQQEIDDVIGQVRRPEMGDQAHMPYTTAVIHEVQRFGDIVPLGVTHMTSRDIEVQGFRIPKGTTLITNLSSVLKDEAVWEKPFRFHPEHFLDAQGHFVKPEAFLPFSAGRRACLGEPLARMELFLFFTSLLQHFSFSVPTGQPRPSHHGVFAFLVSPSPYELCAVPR

Row | Compound | IC50 (Flt-3 kinase) | IC50 (CYP2D6)
1 | FC1(F)CCC(Nc2ncc(Cc3c[nH]c4ncc(Cl)cc34)cn2)CC1 [Compound P-3004] | > 1000 nM | > 10000 nM
2 | Cc1cnc2[nH]cc(Cc3cnc(Nc4ccc(C(F)(F)F)nc4)nc3)c2c1 [Compound P-3018, [5-(5-Methyl-1H-pyrrolo[2,3-b]pyridin-3-ylmethyl)-pyrimidin-2-yl]-(6-trifluoromethyl-pyridin-3-yl)-amine] | < 10 nM | > 10000 nM
3 | COc1ccc(Nc2ccc(Cc3c[nH]c4ncc(C)cc34)c(F)n2)cn1 [Compound P-3019, [6-fluoro-5-(5-methyl-1H-pyrrolo[2,3-b]pyridin-3-ylmethyl)-pyridin-2-yl]-(6-methoxy-pyridin-3-yl)-amine] | < 1000 nM | > 10000 nM
4 | CCOc1ccc(Nc2ccc(Cc3c[nH]c4ncc(C)cc34)c(F)n2)cn1 [Compound P-3039, (6-ethoxy-pyridin-3-yl)-[6-fluoro-5-(5-methyl-1H-pyrrolo[2,3-b]pyridin-3-ylmethyl)-pyridin-2-yl]-amine] | < 100 nM | > 10000 nM
5 | COc1ccc(Nc2ccc(C(=O)c3c[nH]c4ncc(C)cc34)c(F)n2)cn1 [Compound P-3040, [2-Fluoro-6-(6-methoxy-pyridin-3-ylamino)-pyridin-3-yl]-(5-methyl-1H-pyrrolo[2,3-b]pyridin-3-yl)-methanone] | < 100 nM | > 10000 nM
6 | Cc1cnc2[nH]cc(Cc3ccc(Nc4ccc(C)nc4)nc3F)c2c1 [Compound P-3041, [6-Fluoro-5-(5-methyl-1H-pyrrolo[2,3-b]pyridin-3-ylmethyl)-pyridin-2-yl]-(6-methyl-pyridin-3-yl)-amine] | < 1000 nM | > 10000 nM
7 | Cc1cnc2[nH]cc(C(=O)c3ccc(Nc4ccc(C)nc4)nc3F)c2c1 [Compound P-3043, [2-Fluoro-6-(6-methyl-pyridin-3-ylamino)-pyridin-3-yl]-(5-methyl-1H-pyrrolo[2,3-b]pyridin-3-yl)-methanone] | < 1000 nM | > 10000 nM
8 | Cc1ccc(Nc2ccc(C(=O)c3c[nH]c4ncc(Cl)cc34)c(F)n2)cn1 [Compound P-3044, (5-Chloro-1H-pyrrolo[2,3-b]pyridin-3-yl)-[2-fluoro-6-(6-methyl-pyridin-3-ylamino)-pyridin-3-yl]-methanone] | < 1000 nM | > 10000 nM
9 | CCOc1ccc(Nc2ccc(Cc3c[nH]c4ncnc(OCCOC)c34)c(F)n2)cn1 [Compound P-4008, (6-Ethoxy-pyridin-3-yl)-{6-fluoro-5-[4-(2-methoxy-ethoxy)-7H-pyrrolo[2,3-d]pyrimidin-5-ylmethyl]-pyridin-2-yl}-amine] | < 100 nM | > 10000 nM
10 | CCOc1ncnc2[nH]cc(Cc3ccc(Nc4cnn(CC)c4)nc3F)c12 [Compound P-4012, [5-(4-Ethoxy-7H-pyrrolo[2,3-d]pyrimidin-5-ylmethyl)-6-fluoro-pyridin-2-yl]-(1-ethyl-1H-pyrazol-4-yl)-amine] | < 1000 nM | > 10000 nM
11 | CCn1cc(Nc2ccc(Cc3c[nH]c4ncnc(C)c34)c(F)n2)cn1 [Compound P-4013, (1-Ethyl-1H-pyrazol-4-yl)-[6-fluoro-5-(4-methyl-7H-pyrrolo[2,3-d]pyrimidin-5-ylmethyl)-pyridin-2-yl]-amine] | > 1000 nM | > 10000 nM
12 | CCOc1ncnc2[nH]cc(Cc3ccc(Nc4cccnc4)nc3F)c12 [Compound P-4021, [5-(4-Ethoxy-7H-pyrrolo[2,3-d]pyrimidin-5-ylmethyl)-6-fluoro-pyridin-2-yl]-pyridin-3-yl-amine] | > 1000 nM | 
13 | CCOc1ccc(Nc2ccc(Cc3c[nH]c4ncnc(C5CC5)c34)c(F)n2)cn1 [Compound P-4026, [5-(4-Cyclopropyl-7H-pyrrolo[2,3-d]pyrimidin-5-ylmethyl)-6-fluoro-pyridin-2-yl]-(6-ethoxy-pyridin-3-yl)-amine] | < 100 nM | 
14 | CCOc1ccc(Nc2ccc(C(=O)c3c[nH]c4ncnc(C5CC5)c34)c(F)n2)cn1 [Compound P-4027, (4-Cyclopropyl-7H-pyrrolo[2,3-d]pyrimidin-5-yl)-[6-(6-ethoxy-pyridin-3-ylamino)-2-fluoro-pyridin-3-yl]-methanone] | < 10 nM | 
15 | CCOc1ccc(Nc2ccc(C(=O)c3c[nH]c4ncnc(C)c34)c(F)n2)cn1 [Compound P-4032, [6-(6-Ethoxy-pyridin-3-ylamino)-2-fluoro-pyridin-3-yl]-(4-methyl-7H-pyrrolo[2,3-d]pyrimidin-5-yl)-methanone] | < 100 nM | 

Further lines, results first:

Row | IC50 (Flt-3 kinase) | IC50 (CYP2D6) | Compound
16 | < 1000 nM | > 10000 nM | COc1ccc(Nc2ccc(Cc3c[nH]c4ncnc(OC)c34)c(F)n2)cn1 [Compound P-4001, [6-Fluoro-5-(4-methoxy-7H-pyrrolo[2,3-d]pyrimidin-5-ylmethyl)-pyridin-2-yl]-(6-methoxy-pyridin-3-yl)-amine]
17 | < 1000 nM | > 10000 nM | COc1ncnc2[nH]cc(Cc3ccc(Nc4ccc(Cl)nc4)nc3F)c12 [Compound P-4003, (6-Chloro-pyridin-3-yl)-[6-fluoro-5-(4-methoxy-7H-pyrrolo[2,3-d]pyrimidin-5-ylmethyl)-pyridin-2-yl]-amine]
18 | < 10 nM | > 10000 nM | COc1ncnc2[nH]cc(Cc3ccc(Nc4ccc(C5CC5)nc4)nc3F)c12 [Compound P-4004, (6-Cyclopropyl-pyridin-3-yl)-[6-fluoro-5-(4-methoxy-7H-pyrrolo[2,3-d]pyrimidin-5-ylmethyl)-pyridin-2-yl]-amine]
19 | < 100 nM | > 10000 nM | CCOc1ccc(Nc2ccc(Cc3c[nH]c4ncnc(OC)c34)c(F)n2)cn1 [Compound P-4005, (6-Ethoxy-pyridin-3-yl)-[6-fluoro-5-(4-methoxy-7H-pyrrolo[2,3-d]pyrimidin-5-ylmethyl)-pyridin-2-yl]-amine]
20 | < 100 nM | > 10000 nM | CCOc1ccc(Nc2ccc(Cc3c[nH]c4ncnc(C)c34)c(F)n2)cn1 [Compound P-4006, (6-Ethoxy-pyridin-3-yl)-[6-fluoro-5-(4-methyl-7H-pyrrolo[2,3-d]pyrimidin-5-ylmethyl)-pyridin-2-yl]-amine]
21 | < 100 nM | > 10000 nM | CCc1ccc(Nc2ccc(Cc3c[nH]c4ncnc(OC)c34)c(F)n2)cn1 [Compound P-4007, (6-Ethyl-pyridin-3-yl)-[6-fluoro-5-(4-methoxy-7H-pyrrolo[2,3-d]pyrimidin-5-ylmethyl)-pyridin-2-yl]-amine]
22 | < 100 nM | > 10000 nM | CCc1ccc(Nc2ccc(Cc3c[nH]c4ncnc(C)c34)c(F)n2)cn1 [Compound P-4009, (6-Ethyl-pyridin-3-yl)-[6-fluoro-5-(4-methyl-7H-pyrrolo[2,3-d]pyrimidin-5-ylmethyl)-pyridin-2-yl]-amine]
23 | < 1000 nM | > 10000 nM | COc1ncnc2[nH]cc(Cc3ccc(Nc4ccc(C)nc4)nc3F)c12 [Compound P-4010, [6-Fluoro-5-(4-methoxy-7H-pyrrolo[2,3-d]pyrimidin-5-ylmethyl)-pyridin-2-yl]-(6-methyl-pyridin-3-yl)-amine]
24 | < 1000 nM | > 10000 nM | CCn1cc(Nc2ccc(Cc3c[nH]c4ncnc(OC)c34)c(F)n2)cn1 [Compound P-4011, (1-Ethyl-1H-pyrazol-4-yl)-[6-fluoro-5-(4-methoxy-7H-pyrrolo[2,3-d]pyrimidin-5-ylmethyl)-pyridin-2-yl]-amine]
